Source: patent US6214869A, “Heterocyclic cis cyclopropane derivatives as melatonergic agents” (Bristol-Myers Squibb, priority 1999, dated 2001)

Target: T1, ML1a human melatonin receptor (Homo sapiens, UniProt P48039)
T1 construct: expressed in transfected cells
Experiment: Melatonergic receptor binding (2-[125I]-iodomelatonin, membranes of NIH-3T3 cells expressing ML1a receptor)
Settings: 37° C. for 1 hour, read-out: Melatonin Binding Affinity (IC50)
Description: Melatonergic Receptor Binding Activity
(a) TME=50 mM Tris buffer containing 12.5 mM MgCl2, and 2 mM EDTA, pH 7.4 at 37° C. with concentrated HCl.
(b) Wash buffer: 20 mM Tris base containing 2 mM MgCl2, pH 7.4 at room temperature.
(c) 10^-4 M melatonin (10^-5 M final concentration).
(d) 2-[^125 I]-iodomelatonin, 0.1 M final concentration
The melatonin ML1a receptor cDNA was subcloned into pcDNA3 and introduced into NIH-3T3 cells using Lipofectamine. Transformed NIH-3T3 cells resistant to geneticin (G-418) were isolated, and single colonies expressing high levels of 2[^125 I]-iodomelatonin binding were isolated. Cells are maintained in DMEM supplemented with 10% calf serum and G-418 (0.5 g/liter). Cells are grown to confluency in T-175 flasks, scraped using Hank's balanced salt solution, and frozen at -80° C. For preparing membrane homogenates, pellets are thawed on ice, and resuspended in TME buffer in the presence of 10 μg/ml aprotinin and leupeptin, and 100 μM phenylmethylsulfonylfluoride. The cells were then homogenized using a dounce homogenizer, and centrifuged. The resulting pellet was resuspended with dounce homogenizer in TME (supplemented with the above protease inhibitors) and frozen. On the day of assay, the small aliquot was thawed on ice and resuspended in ice cold TME (1:50-1:100 v/v) and held on ice until assayed.
3. Incubation: 37° C. for 1 hour. Reaction is terminated by filtration. Filters are washed 3 times.
^a = (IC50) values for ML1a human melatonin receptor binding

T1 sequence (P48039 whole entry): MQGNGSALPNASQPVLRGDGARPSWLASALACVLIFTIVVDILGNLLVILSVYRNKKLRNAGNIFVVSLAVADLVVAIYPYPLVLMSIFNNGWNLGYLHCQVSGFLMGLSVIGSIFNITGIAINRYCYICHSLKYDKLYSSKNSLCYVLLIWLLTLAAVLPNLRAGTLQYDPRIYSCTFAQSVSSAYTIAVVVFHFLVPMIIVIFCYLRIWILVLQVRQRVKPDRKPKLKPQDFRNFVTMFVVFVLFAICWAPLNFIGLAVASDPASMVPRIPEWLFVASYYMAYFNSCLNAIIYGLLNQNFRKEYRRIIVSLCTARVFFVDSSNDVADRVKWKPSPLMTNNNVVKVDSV

IC50 | Structure (SMILES)
< 50 nM | CC(C)C(=O)NC[C@H]1C[C@H]1c1cccc2c1CCO2 (relative stereo) [Example 5, (cis)-N-[[2-(2,3-Dihydrobenzofuran-4-yl)cycloprop-1-yl]methyl]-2-methyl propanamide]
50 to 200 nM | CC(=O)NC[C@@H]1C[C@@H]1c1cccc2c1CCO2 (relative stereo) [Example 2, (cis)-N-[[2-(2,3-Dihydrobenzofuran-4-yl)cycloprop-1-yl]methyl]acetamide]
< 50 nM | O=C(NC[C@@H]1C[C@@H]1c1cccc2c1CCO2)C1CC1 (relative stereo) [Example 3, (cis)-N-[[2-(2,3-Dihydrobenzofuran-4-yl)cycloprop-1-yl]methyl]cyclopropane carboxamide]
< 50 nM | CCC(=O)NC[C@@H]1C[C@@H]1c1cccc2c1CCO2 (relative stereo) [Example 1, (cis)-N-[[2-(2,3-Dihydrobenzofuran-4-yl)cycloprop-1-yl]methyl]propanamide]
< 50 nM | CCCC(=O)NC[C@@H]1C[C@@H]1c1cccc2c1CCO2 (relative stereo) [Example 4, (cis)-N-[[2-(2,3-Dihydrobenzofuran-4-yl)cycloprop-1-yl]methyl]butyramide]
